# Measured values reported in patent US20130287721A1, “METHOD FOR COUNTERACTING AMMONIA MALODOR” (Firmenich SA, priority 2010, published 2013).
# Tested on: ammonia lateralization threshold
# Test: Panel evaluation of the lateralization threshold (LT) of ammonia alone and in combination with a PRM
# Type: in vivo, panellists
# Set-up: LT of ammonia Panellist 1 Cond II / LT of ammonia Panellist 2 Cond II / LT of ammonia Panellist 3 Cond II: unit not given here
# Details: for LT of ammonia Panellist 1 Cond II / LT of ammonia Panellist 2 Cond II / LT of ammonia Panellist 3 Cond II / LT of ammonia Panellist 1 %Δ / LT of ammonia Panellist 2 %Δ / LT of ammonia Panellist 3 %Δ: Table 4; for LT of ammonia Panellist 1 Cond II / LT of ammonia Panellist 2 Cond II / LT of ammonia Panellist 3 Cond II: ammonia stimulus combined with PRM stimulus; for LT of ammonia Panellist 1 %Δ / LT of ammonia Panellist 2 %Δ / LT of ammonia Panellist 3 %Δ / Ammonia LT Panellist 1 % Δ / Ammonia LT Panellist 2 % Δ / Ammonia LT Panellist 3 % Δ: change of ammonia LT, Cond II (with PRM) vs Cond I (ammonia alone); for Ammonia LT Panellist 1 Cond II / Ammonia LT Panellist 2 Cond II / Ammonia LT Panellist 1 % Δ / Ammonia LT Panellist 2 % Δ / Ammonia LT Panellist 3 Cond II / Ammonia LT Panellist 3 % Δ: Table 3; for Ammonia LT Panellist 1 Cond II / Ammonia LT Panellist 2 Cond II / Ammonia LT Panellist 3 Cond II: ammonia stimulus combined with PRM stimulus (concentration of Table 2 in propylene glycol)
# Protocol: An ammonia stimulus test range was prepared. To ensure a stable level of ammonia in each stimulus, the ammonia headspace was stabilized by combining appropriate concentrations of NH4Cl, NaOH and H2O instead of simply adding ammonia directly to a solvent. Different concentrations of ammonia were used to create a stimulus test range by utilizing the appropriate amount of each compound (see Table 1).
# A stimulus was also prepared for each PRM which was intended to be combined with ammonia stimuli. As the PRMs differed in their potency and to ensure that each PRM stimulus had approximately the same potency, an abbreviated dose response curve was constructed for each PRM by having four panellists evaluate the intensity of five concentration levels of the PRM dissolved in propylene glycol in duplicate. Assessments were made relative to the reference of 170 ppm allyl heptanoate in propylene glycol, which intensity was set to 0. Based upon the average scores, a rough intensity match was made for each PRM utilizing one of the following criteria. If one of the tested concentration levels averaged at or near zero, this concentration level was selected. If the rating created any sort of reasonable curve, the equation of the curve was determined and solved for 0 to arrive at the PRM assessment level. If multiple concentration levels were equally distant form the match level, then the standard deviation across individuals was considered, as were the individual responses. In general, the PRM level was selected to be on average close to 0 with low variability, with two panellists saying the level was a bit too high and the other two panellists saying the level was a bit too low. The PRMs for which a stimulus was prepared are listed in Table 2 below, together with the concentration of the PRM in the stimulus.
# Volunteers were screened for their ability to lateralize ammonia stimuli. For the screening, the experimenter measured the participant's lateralization threshold for ammonia using a two-alternative forced choice modified staircase procedure employing a four-in, two-down, one-up rule with a five reversal criterion, as described below, On each trial volunteers were presented with a pair of glass bottles with clean, custom-made nose pieces. One bottle contained ammonia at a particular level selected from Table 1 and the other bottle contained water only. Each bottle was applied to one nostril using the nose piece. The volunteers were asked to identify which bottle in each pair contained ammonia.
# If the ammonia stimulus was correctly identified in four consecutive trials, the concentration was decreased by one level of Table 1 on the next trial. If an incorrect answer was provided, the concentration was increased by one level of Table 1. Location (left or right nostril) of the stimulus was randomized over presentations. Testing continued until one of the following occurred: • 1) Five reversals (correct decision followed by an incorrect decision or vice versa) were achieved; • 2) The volunteer gave a correct response twice in a row at the lowest level of Table 1; or • 3) The volunteer gave an incorrect response at the highest level of Table 1.
# In the first circumstance, threshold values were then calculated by averaging the last four reversals. In the second circumstance, the LT was the lowest level. In the third circumstance, the LT could not be calculated. Volunteers were considered qualified to participate in the panel evaluation if their LT could be calculated (Circumstance 1).
# The LT of ammonia, both alone and in combination with diverse PRM, was determined. A repeated-measures design was used, such that the LT with and without the addition of a PRM were both measured at the same time in one person by utilizing interwoven stimuli presentations. The LT for each PRM was measured by two to three panellists, the third panellists being included if the results of the first to panellists disagreed. […]
Compound,LT of ammonia Panellist 1 Cond II,LT of ammonia Panellist 2 Cond II,LT of ammonia Panellist 3 Cond II,LT of ammonia Panellist 1 %Δ,LT of ammonia Panellist 2 %Δ,LT of ammonia Panellist 3 %Δ,Ammonia LT Panellist 1 Cond II,Ammonia LT Panellist 2 Cond II,Ammonia LT Panellist 1 % Δ,Ammonia LT Panellist 2 % Δ,Ammonia LT Panellist 3 Cond II,Ammonia LT Panellist 3 % Δ
"CCC(=O)OCC(C)(C)O[C@@H](C)[C@@H]1CCCC(C)(C)C1 [Helvetolide ®, (+)-(1S,1′R)-2-[1-(3′,3′-dimethyl-1′-cyclohexyl)ethoxy]-2-methylpropyl propanoate]",11.1,2.0,2.0,454%,426%,895%,–,–,–,–,–,–
C=C(C)C1CC=C(C)C(=O)C1 (centres unmarked) [Carvone],–,–,–,–,–,–,19.1 ppm,225.5 ppm,214%,214%,–,–
CCOC(=O)C(=O)C(C)CC (centres unmarked) [Ethyl 3-methyl-2-oxopentanoate],0.6,0.6,0.6,417%,786%,210%,–,–,–,–,–,–
"CCCc1ccc2c(c1)OCC(=O)CO2 [7-Propyl-2H,4H-1,5-benzodioxepin-3-one]",11.1,6.3,3.5,456%,453%,212%,–,–,–,–,–,–
"C=CCOC(=O)COC1CCCCC1 [Cyclogalbanate, Allyl (cyclohexyloxy)-acetate]",2.0,6.3,3.5,216%,453%,212%,–,–,–,–,–,–
"CCC=CCC=C/C=C/C(=O)OCC [Ethyl (2E)-2,4,7-decatrienoate]",1.1,2.0,2.0,223%,469%,2743%,–,–,–,–,–,–
"C=C1CCCC(C)(C)C1C(=O)/C=C/C (racemic) [Gamma damascone, (+−)-(E)-1-(2,2-dimethyl-6-methylene-1-cyclohexyl)-2-buten-1-one]",6.3,19.6,11.1,214%,885%,456%,–,–,–,–,–,–
CC(C)=CCC[C@](C)(O)[C@@H]1CC=C(C)CC1 [Alpha-bisabolol],–,–,–,–,–,–,7.3 ppm,172.7 ppm,213%,655%,–,–
"CCCOC(=O)[C@H](C)OC(C)(C)CC [Sclareolate ®, Propyl (S)-2-(1,1-dimethylpropoxy)propanoate]",1.1,1.1,0.6,465%,223%,−2%,–,–,–,–,–,–
Cedrenol,–,–,–,–,–,–,2.3 ppm,60 ppm,−68%,162%,2.3 ppm,−96%
"O=Cc1ccc2c(c1)OCO2 [Heliotropine ®, 1,3-Benzodioxole-5-carbaldehyde]",–,–,–,–,–,–,7.3 ppm,22.9 ppm,274%,−87%,2.3 ppm,−96%
"C[C@H]1[C@@H]2CC(C[C@@]13C=CC(=O)CC3)C2(C)C (single isomer, unassigned; (+))",0.4,0.6,0.6,75%,417%,215%,–,–,–,–,–,–
3-Methyl-(4/5)-cyclopentadecenone [Muscenone ™],11.1,11.1,11.1,454%,77%,214%,–,–,–,–,–,–
